Consider one substance from patent publication US20050239205A1, “Gb virus b based replicons and replicon enhanced cells” (priority 2002, published 2005).

For one assay, the system named is GBV-B virus. Nature of the assay: Infection of enhanced cells with GBV-B virus-containing serum by electroporation (Taqman). It is filed as cell-based. The protocol:
GBV-B virus inoculum produced upon passage of virus in tamarins was used to infect Huh7 and cB76.1/Huh7 enhanced cells. GBV-B containing tamarin serum was layered onto 10^5 cells in multiwell-6-wells 1 day after plating at multiplicity of infection of 0.75 G.E./cell. After 6 hours adsorption, the virus-containing serum was removed, the cells extensively washed and incubated in the serum-free DMEM. Cells from individual wells were lyzed with Trizol at different times and GBV-B RNA quantified by Taqman.
As an alternative method, 10^6 cells were mixed with undiluted virus-containing serum (10^6 G.E.) and subjected to electroporation. The cells were plated at a density of 10^5/well and treated as described for experiments of RNA electroporation. Duplicate wells were run in parallel, with and without interferon. Cells from individual wells were lyzed with Trizol at different times and GBV-B RNA quantified by Taqman. The amount of G.E. detectable immediately after electroporation and wash was 10^3 G.E., it was undetectable at 24 and 48 hours, at day 3 it was 10^4 G.E.; at day 6 it was 5×10^3 (possibly inhibition due to cell density); in corresponding wells treated with interferon the RNA was undetectable. […] RNA was quantified at day 13 and 16 giving a figure corresponding to 4×10^3 G.E. and 1.2×10^4 G.E. respectively. […]
A general note: Quantitative PCR measures a nucleic acid by following its amplification.

The test system of a further assay is GBV-B replicon. The assay can be described thus: Effect of test compound on GBV-B replicon RNA in B76.1/Huh7 cells (TaqMan, neo primer set). Type of assay: cell-based. As for the experimental part:
(§1) Huh7 cell clones carrying GBV-B or HCV replicons were used to test the effect of human interferon alpha-2b. Cells (1×10^5) were plated into each well of a series of wells of Multiwell-6-wells plates (falcon cat N. 35-3046) in medium without G418. After 16 hours the medium was discarded and increasing concentrations of the test compound in fresh medium were added to each series of wells. Controls were run using the specific compound solvent at the appropriate dilution.
[…] Total RNA was purified as described in the TRizol protocol (Life Technologies). Ten out of 100 μl of total RNA were used in each reaction.
Taq Man analysis was performed using a neomycin primer set (taq NEO 1, GATGGATTGCACGCAGGTT (SEQ. ID. NO. 17), and taq NEO 5, […] (SEQ. ID. NO. 18)) and a NEO probe (1,6-carboxyfluorescein-TCCGGCCGCTTGGGT GGAG (SEQ. ID. NO. 19)-N,N,N′,N′-tetramethyl-6-carboxyrhodamine). Human GAPDH mRNA quantified with a specific primer set (PE Applied Biosystems) was used as an endogenous reference. GBV-B RNA extracted from mock-treated cells was used as a calibrator. Results from two independent experiments were analyzed using both the Comparative Ct Method and the standard curve method.
Experiments were performed using 10^5 cells of B76.1/Huh7 and 10A plated into individual wells of 6-multiwell plate and incubated overnight in the absence of G418. […]
For orientation: Replicon systems follow genome replication, usually without infectious particles.

The test system of assay [1] is GBV-B full-length genomic FL3 RNA. The assay can be described thus: Replication of full-length GBV-B FL3 RNA transfected in cB76.1/Huh7 enhanced cells (Taqman). Type of assay: cell-based. An excerpt:
GBV-B RNA was quantified by a real-time 5′ exonuclease PCR (TaqMan) assay using a primer/probe set that recognized a portion of the GBV-B 5′UTR. The primers (GBV-B-F3, GTAGGCGGCGGGACTCAT (SEQ. ID. NO. 14), and GBV-B-R3, TCAGGGCCATCCAAGTCAA (SEQ. ID NO. 15)) and probe (GBV-B-P3,6-carboxyfluorescein-[…] (SEQ. ID. NO. 16)-N,N,N′,N′-tetramethyl-6-carboxyrhodamine) were selected using the Primer Express software (PE Applied Biosystems). The fluorescent probe was obtained from PE Applied Biosystems. The primers were used at 10 pmol/50 μl reaction, and the probe was used at 5 pmol/50 μl reaction.
PCR was were performed using a TaqMan Gold RT-PCR kit (PE Applied Biosystems). […]
RNA transcribed from a plasmid containing the first 2000 nucleotides of the GBV-B genome was used as a standard to establish genome equivalents. […] RNA was quantified by absorbance at 260 nm and stored at −80° C.
All reactions were run in duplicate by using the ABI Prism 7700 Sequence Detection System (PE Applied Biosystems). […] Results from two independent experiments were analyzed using both the Comparative Ct Method and the standard curve method.
GBV-B full-length genomic FL3 RNA (EMBL accession number AJ277947) was transfected in Huh7 and in enhanced cells cB76.1/Huh7 in parallel with the corresponding GAA control. Intracellular GBV-B RNA was measured by Taqman in a time-course experiment.

Another assay concerns RepB replication. Nature of the assay: beta-lactamase stain of bla-RepB transfected cB76.1/Huh7 cells. It is filed as cell-based, GBV-B. As for the experimental part:
Immediately after electric pulses cells were diluted in 8 ml complete Dulbecco's Modified Eagle Medium (DMEM) and processed with different protocols depending on the selection/tracer used. In the case of neo-constructs transformation, cells were divided in 3 plates of 15 cm diameter and on the following day the selecting antibiotic G418 (Sigma G-9516) was added at a concentration of 0.250, 0.5 or 1 mg/ml. […] Surviving clones were picked-up and expanded by growing them in individual plates. When a bla reporter gene was used, 1.5 ml, 1.0 ml and 0.5 ml of transfected cells suspension were plated in each well of Multiwell-6-wells plate (Falcon cat. N. 35-3046) to be stained respectively at 24, 48 and 72 hours.
Aurora substrate system “CCF4” was used to measure β-lactamase activity. When quantitative PCR was used to measure transient replication, cells were plated 1-2×10^5/well in “6-multi-well plate”. After 3 days total RNA was purified as described in the TRIzol protocol (Life Technologies) and 10 out of 100 μl of total RNA were used in individual TaqMan reactions.
The increased efficiency of replication of RepB RNA in cB76.1/Huh7 cells compared to wild type Huh7 cells was also monitored using a colorimetric assay after transfection of RNA transcribed from bla-RepB plasmid. The bla-RepB plasmid expresses a […] marker in place of the selector neomycin phosphotransferase. […]

The test system of the next assay is HCV replicon. Nature of the assay: Effect of test compound on HCV replicon RNA in 10A Huh7 cells (TaqMan, neo primer set). It is filed as cell-based. To be noted: 10A cells (HCV replicon in Huh7), up to 3 days, replicon RNA normalized to GAPDH. The protocol: as §1
Cells were grown up to 3 days in the presence of compounds or compound solvent without a compound, avoiding cell confluence, and finally lysed with TRIzol. Total RNA was purified as described in the TRizol protocol (Life Technologies). Ten out of 100 μl of total RNA were used in each reaction.
Taq Man analysis was performed using a neomycin primer set (taq NEO 1, GATGGATTGCACGCAGGTT (SEQ. ID. NO. 17), and taq NEO 5, […] (SEQ. ID. NO. 18)) and a NEO probe (1,6-carboxyfluorescein-TCCGGCCGCTTGGGT GGAG (SEQ. ID. NO. 19)-N,N,N′,N′-tetramethyl-6-carboxyrhodamine). Human GAPDH mRNA quantified with a specific primer set (PE Applied Biosystems) was used as an endogenous reference. GBV-B RNA extracted from mock-treated cells was used as a calibrator. Results from two independent experiments were analyzed using both the Comparative Ct Method and the standard curve method. […]

On to “human interferon alpha-2b [Human alpha-IFN]”, for which the “GBV-B RNA in cells cultivated in the presence of IFN” value with GBV-B virus (after splits, points up to day 16) was “background signals”. The “GBV-B RNA in treated wells” value with GBV-B virus (day 3 and day 6 after electroporation with virus-containing serum) was “undetectable”. Besides, the “Replicon RNA after curing treatment” value with GBV-B replicon (B76.1/Huh7, 100 U/ml for 15 days in the absence of neomycin, TaqMan at end of treatment) was “disappearance of the selectable RNA replicon molecules”. Besides, the “IC50 on GBV-B replicon” value in the assay with GBV-B replicon (B76.1/Huh7 cells, up to 3 days, replicon RNA normalized to GAPDH) is 0.45 U/ml. The “Decrease of FL3 RNA amount” value in assay [1] (cB76.1/Huh7 transfected with FL3, day 6) is listed as 10-20 fold. In assay [1] (cB76.1/Huh7 transfected with mutant GAA construct, day 6), the “Effect on GAA mutant RNA amount” value is listed as “did not affect”. In addition, in the assay on RepB replication, the “Number of blue cells” value is recorded as “reduced the number of blue cells to background levels”. The “IC50 on HCV replicon” value in the assay on HCV replicon is on record as 0.58 U/ml.
